Test results as given in patent US9994566B2, “Compound of 5-hydroxyl-1,7-naphthyridine substituted by aryl or heteroaryl, preparation method thereof and pharmaceutical use thereof” (SHENYANG SUNSHINE PHARMACEUTICAL CO. LTD., priority 2015, dated 2018).
“And” between values parts separate entries of the source, which are not always exact repeats. Equal values may be shown once.

Assays:
[1] = target: HIF Prolyl hydroxylases 2 (PHD2) (Homo sapiens, UniProt Q9GZT9); test: PHD2 inhibition, fluorescence polarization (FP) detection of HIF-1α / VBC complex interaction; format: biochemical; settings: PHD2 0.5 μg/μl, FAM-HIF (556-575) 1 μM, 30 minutes room temperature
Sequence of HIF Prolyl hydroxylases 2 (PHD2) (Q9GZT9 whole entry, species assumed): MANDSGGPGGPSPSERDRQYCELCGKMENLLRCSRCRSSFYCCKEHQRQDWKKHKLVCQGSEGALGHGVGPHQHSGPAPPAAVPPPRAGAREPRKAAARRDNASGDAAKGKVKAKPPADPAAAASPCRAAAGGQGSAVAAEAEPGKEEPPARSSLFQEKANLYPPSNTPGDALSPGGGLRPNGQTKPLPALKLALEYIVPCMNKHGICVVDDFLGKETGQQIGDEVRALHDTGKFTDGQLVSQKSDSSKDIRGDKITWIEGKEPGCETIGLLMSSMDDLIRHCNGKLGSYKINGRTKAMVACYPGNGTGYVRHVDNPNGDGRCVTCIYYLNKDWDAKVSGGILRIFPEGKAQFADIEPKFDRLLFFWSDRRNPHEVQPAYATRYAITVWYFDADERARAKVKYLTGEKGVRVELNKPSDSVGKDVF
Description: The interaction between hypoxia-inducible factor HIF-1α and VBC complex (von Hippel-Lindau protein-Elongin B-Elongin C, VBC) was detected by Fluorescence polarization (FP) method, to measure the enzyme inhibitory activity of the HIF Prolyl hydroxylases 2 (PHD2) inhibitor compounds.
Subsequently, the desired concentration of the test compound or the positive compound was added (the compound was replaced by the buffer in the negative control and the positive control). Finally, PHD2 was added at a final concentration of 0.5 μg/μl (PHD2 was replaced by the buffer in the negative control). They were mixed well and allowed to stand at room temperature for 30 minutes in the dark followed by 95° C. water bath for 1 minute, and then the reaction was terminated. After the temperature drops to room temperature, the sample was prepared well for use. EBC buffer (50 mM Tris.HCl, 120 mM NaCl, 0.5% NP-40) was added to the corresponding wells of a black 96-well test plate. A GST-VBC complex was added to the corresponding test wells at a final concentration of 300 nM (using the wells containing only EBC buffer as blank wells). Subsequently, the corresponding PHD2 prolyl hydroxylation reaction sample was added in the dark as a substrate with a final concentration of 100 nM. After mixing well, the lateral and longitudinal fluorescence intensity values were measured using a full-wavelength multifunctional microplate reader (TECAN infinite M1000) at an excitation wavelength of […] and an emission wavelength of 518 nm.
The fluorescence polarization (mP) was calculated: mP=1000×(lateral value−G factor×longitudinal value)/(lateral value+G factor×longitudinal value) wherein, lateral value=lateral fluorescence intensity value of test well−lateral fluorescence intensity value of blank well, longitudinal value=longitudinal fluorescence intensity value of test well−longitudinal fluorescence intensity value of blank well, […]
The IC50 was calculated using the non-linear regression data analysis method of Graphpad Prism 4.0 software ([…]).

[2] = tested on: male Balb/c mice; test: Effect on increasing erythrocyte of normal mice: reticulocyte (RETIC) count; format: in vivo; settings: 25 mg/kg, oral, once a day × 3, four hours after the last administration; for RETIC, individual mice (Mice No. 1-8): one value per mouse; for RETIC, Average: orbital blood
Description: Biological Example 3: Effect of the Compounds of the Present Invention on Increasing Erythrocyte of Normal Mice
80 male Balb/c mice were divided into 11 groups, with 8 animals for each drug group, 10 animals for blank control group. Drug group: AKB-6548, 100 mg/kg, oral administration, once a day×3; FG-4592, 25 mg/kg, oral administration, once a day×3; EPO, 100 IU/kg, Day 1 and Day 3, subcutaneous injection, as positive control groups. Each of the compounds of the present invention was orally administrated at 25 mg/kg, once a day×3. Four hours after the last administration, orbital blood of all animals were collected and treated with EDTA-K2 anticoagulant, and reticulocytes (RETIC) were counted with a blood cell automated analyzer.

[3] = tested on: hepatoma cells Hep3B; test: Promotion of erythropoietin (EPO) expression in hepatoma cells Hep3B in vitro (ELISA); format: cell-based, Human; settings: Hep3B supernatant, 24 hours, test doses 100 μmol/L and 10 μmol/L (dose of the tabulated value not given)
Source text: Biological Example 1: Development and Screening of In Vitro Detection Methods: Promotion of Erythropoietin Expression in Hepatoma Cells Hep3B In Vitro by HIF-PHD2 Inhibitor Compounds
The complete medium for culture of Experimental hepatoma cells Hep3B (China Center for Type Culture Collection, CCTCC) was MEM (Cat# GNM 41500, GIBCO, provided by Hangzhou Genom Biopharmaceutical Technology Co., Ltd) supplemented with 10% serum FBS (Cat#10099-141, GIBCO) and 1% P/S (Cat#GNM15140, provided by Hangzhou Genom Biopharmaceutical Technology Co., Ltd). Cells were cultured in a 37° C., 5% CO2 incubator. Experimental reagents included dimethyl sulfoxide (for molecular biology, >=99.9%, Catalog # D8418) purchased from Sigma. The ELISA kit was purchased from Quantikine IVD ELISA, Human Erythropoietin (R&D, DEP00). The test control AKB-6548 was prepared by the inventors or obtained by commercial purchase. The test substance was stored at −20° C. in the dark.
The test substance and the positive control substance were fully dissolved in sterile water or dimethylsulfoxide under dark conditions and prepared into a stock solution at a concentration of 10^−1 mol/L or 10^−2 mol/L. Each of the stock solutions was stored at −20° C. MEM medium containing 0.5% FBS was used as a diluent to dilute the stock solution of the test substance, to prepare a diluted test substance at a concentration of 100 μmol/L and 10 μmol/L. To a 96-well culture plate was added 200 μl/well (1.5 or 2.0×10^4 cells/well) of hepatoma cells Hep3B complete medium suspension and incubated overnight at 37° C. in a 5% CO2 incubator. The solution in the 96-well culture plate was removed and the cells were washed once with the MEM medium containing 0.5% FBS. 200 μl/well of the test substance was added in the dark, at a dose of 100 μmol/L and 10 μmol/L, and each dose set 2 wells, a test well and a spare well. A cell control well was prepared by replacing the test solution with the diluent (without test substance and solvent). A solvent control well was prepared by replacing the test solution with the diluent containing the corresponding concentration of solvent (dimethylsulfoxide) (without test substance). They were cultured in a 5% CO2 incubator at 37° C. for 24 hours. The supernatant was absorbed as a sample and cryopreserved at −20° C. for use. 100 μl/well of stop solution was added. OD value was detected by microplate reader A450 nm-A600 nm. The expression level of EPO (mIU/mL) promoted by the test substance was obtained according to the standard curve.

SMILES | IC50 [1] [µM] | RETIC, individual mice (Mice No. 1-8) [2] | RETIC, Average [2] | EPO level of the test substance [3] [mIU/mL]
O=C(O)CNC(=O)c1ncc2nc(-c3cccc4ccccc34)ccc2c1O [Compound 14, [(5-hydroxy-2-(naphthalene-1-yl)-[1,7]naphthyridine-6-carbonyl)-amino]-acetic acid] | 10 | 4 (3×) and 3.8 and 4.1 and 5.8 and 3.4 and 4.3 | 4.18 | 5.435
O=C(O)CNC(=O)c1ncc2nc(-c3ccc(C(F)(F)F)cc3)ccc2c1O [Compound 23, 2-{5-hydroxy-[2-(4-trifluoromethyl)-phenyl]-[1,7]-napthyridine-6-formamido} acetic acid] | 5.2 | 2.9 and 3.2 (3×) and 3 and 5.1 and 9.1 | 4.24 | 0.72
O=C(O)CNC(=O)c1ncc2nc(-c3cccc(Cl)c3)ccc2c1O [Compound 6, 2-{5-hydroxy-[2-(3-chloro)-phenyl]-[1,7]-naphthyridine-6-formamido} acetic acid] | 0.41 | 5.2 (2×) and 4.8 and 6.3 and 4.7 and 6.4 and 3.9 and 5.4 | 5.24 | 2.268
